Assay results taken from patent publication US20190192456A1, “USE OF CELIPROLOL FOR TREATING VASCULAR EHLERS-DANLOS SYNDROME IN WOMEN DURING PREGNANCY AND PERIPARTUM PERIOD” (Assistance Publique-Hôpitaux de Paris (AP-HP), priority 2017, published 2019).

How the values were obtained:
Assay type in all cases: in vivo, human
[1] = system: newborn of mothers who received celiprolol during pregnancy and delivery; experiment: Newborn well-being after indirect exposure to celiprolol during pregnancy; details: n=7 newborn of mothers who received celiprolol during pregnancy and delivery
Description: For each newborn, weight and height at birth were recorded and presented as a function of term of pregnancy, as previously described. Health status at birth was assessed by the APGAR score noted in the children's health record, and any significant event that occurred at birth was collected (respiratory failure, pneumothorax, significant verifiable birth defects).
Reference charts for birth weight and size were constructed according to Battaglia et al. with normal values based on approximately 57 000 newborn of the Paris (France) area as reported by Salomon et al.[15].

[2] = system: parturients with molecularly confirmed vascular Ehlers-Danlos syndrome; experiment: Maternal morbidity study (obstetrical interview study) of vascular EDS parturients; prescription of celiprolol during pregnancy, delivery and post-partum period
Description: For each pregnancy, date and time of delivery were recorded, as well as term of pregnancy at birth, expressed in weeks of amenorrhea (WA). In case of preterm labour or premature rupture of membranes (PROM), gestational age of occurrence was noted. Ongoing treatments during pregnancy were recorded, especially betablockers (celiprolol). In case of anaesthesia, type of ([…], general) and complications were collected (haematoma, leakage of spinal fluid, pneumothorax for general anaesthesia). Delivery was described as follows: type (vaginal, c-section), duration of labour for vaginal delivery and the use of forceps or episiotomy. Vascular complications were defined by the occurrence of arterial dissections and ruptures during pregnancy, delivery and during the post-partum period defined as 42 days after delivery. Haemorrhagic complications were defined by, either significant bleeding when reported as such by patients and/or medical records, either by bleeding requiring blood transfusion or post-partum haemorrhage. Bleeding events >1000 ml with hemodynamic collapse are reported as haemorrhagic shock. Perineal damage was defined by the occurrence of a perineal tear related or not with episiotomy. Perineal injury was graded according to Sultan et al., from grade I (limited defect of perineal skin), to grade IV (injury of the perineum involving the anal sphincter complex and epithelium) perineal tears.
After the first interview, all relevant obstetrical data, especially term of pregnancies and obstetrical complications (preterm labour, PROM, uterine rupture, haemorrhage) were independently checked for accuracy of diagnosis and staging by a senior obstetrician during a second interview, and hospital records of deliveries were checked, when available.
Programmed Early C-Section and Prescription of Celiprolol
In n=12 (20%) pregnancies of this cohort, diagnosis of maternal vascular EDS (n=11, 28%) was suspected (n=2) or genetically confirmed (n=9) at the time of delivery, with consequent obstetrical management (prescription of celiprolol 200 mg BID in n=7 patients covering 7/12 pregnancies; preterm c-section in n=11/12 deliveries, of which 9 were scheduled).

[3] = system: parturients with vascular Ehlers-Danlos syndrome; experiment: Maternal mortality analysis of vascular EDS families; details: one patient, 7 months after delivery; programmed early c-section, unremarkable arterial monitoring after the postpartum period
Description: For the mortality analysis, the medical charts and pedigrees of all patients known to the French referral center for rare vascular diseases (AP-HP, Centre de Référence des Maladies Vasculaires Rares, Hôpital Européen Georges Pompidou, Paris, France) for having a molecularly confirmed vascular EDS, were screened for past or ongoing pregnancies, and for maternal deaths in probands and pedigrees. All families known to our center with at least one proband diagnosed with vascular EDS (nationwide patient cohort) were considered for participation to the maternal mortality analysis after exclusion of ascendants of patients with neomutations (see below). Patients with a personal history of pregnancy were considered for participation to the obstetrical interview study. […]
Maternal deaths were determined according to definitions of the 10th revision of the International Classification of Diseases of the World Health Organization (Geneva 2004). Pregnancy-related deaths defined as the death of a woman while pregnant or within 42 days of termination of pregnancy, irrespective of the cause of death, were determined for probands, first and second degree ascendants. […] A global maternal mortality ratio was then determined, which encompassed pregnancy-related and late maternal mortality ratios. […]

[4] = patients treated with celiprolol 200 mg BID, n=7

## CCN(CC)C(=O)Nc1ccc(OCC(O)CNC(C)(C)C)c(C(C)=O)c1 (centres unmarked) [celiprolol, N′-(3-Acetyl-4-(3-((1,1-dimethylethyl)amino)-2-hydroxypropoxy)phenyl)-N,N-diethylurea]
[1]
  neonatal hypoglycaemia: none of the n=7 newborn
  other indications of adverse effects of indirect exposure to celiprolol during pregnancy: nor had other indications of adverse effects
[2]; celiprolol 200 mg BID in n=7 patients covering 7/12 pregnancies
  tolerability of celiprolol throughout pregnancy and the post-partum period: well tolerated
[2]; celiprolol 200 mg BID, n=7 patients, throughout pregnancy and the post-partum period
  dose adjustment in comparison to the dosage prescribed prior to the beginning of each pregnancy: no dose adjustment was necessary in any patient
[2]; [4]
  arterial event (dissection, rupture): No arterial event (dissection, rupture)
  maternal survival of pregnancies and post-partum periods: all patients treated with celiprolol survived
  uterine rupture: nor uterine rupture occurred in any patient
[3]
  late maternal death by spontaneous intra-abdominal arterial rupture: occurred spontaneously despite a programmed early c-section, medication by celiprolol
